Measurements: article PMC8904451, “Novel chalcone-derived pyrazoles as potential therapeutic agents for the treatment of non-small cell lung cancer” (Scientific Reports, 2022)
Where two headings read alike, the source gives them in different places.

Legend:
Type in all cases: cell-based, human
[1] = system: H460 cells; test: MTT cell viability assay, H460
Procedure: (§1) All the synthesized chalcone-derived pyrazoles were evaluated for their antiproliferative activity against three human non-small cell lung cancer cell lines: A-549, H226, and H460, and a nonmalignant human embryonic kidney cell line HEK293. Cisplatin and 5-fluorouracil (5-FU) were used as a reference. Cells were exposed to a range of PCH concentrations (0.5–100 µM) for 72 h and analyzed by 3-(4,5-dimethylthiazol-2-yl)-2,5-diphenyl-2H-tetrazolium bromide (MTT) assay. The results of the studies are expressed as the IC50 concentration that inhibits 50% growth of cells. […] Following treatment with PCH-1, the viability of all the tested cancer cell lines decreased in a concentration-dependent manner.
(§2) The cell viability assay was performed for A-549, H226, H460, and HEK293 cells after treatment with the test compounds by using the 3-(4,5-dimethylthiazol-2-yl)-2,5-diphenyltetrazolium bromide (MTT, Sigma-Aldrich) assay. Briefly, cells were seeded onto 96-well culture plates for attachment. After 24 h, triplicate wells were treated with DMSO (1%) and the agents. After 72 h of incubation at 37 °C in 5% CO2, the MTT solution (0.4 mg/ml) was added to each well. After 2–4 h of incubation, the medium was removed, and the formazan crystals were dissolved in 100 μl of DMSO. The absorption was measured at 450 nm with an ASYS UVM340 microplate reader (Biochrom Ltd.). The 50% inhibitory concentration (IC50) was defined as the concentration that reduced the absorbance of the DMSO-treated wells by 50% of the vehicle. The IC50 values were generated from GraphPad Prism 9 software by plotting the survival curve as a function of dose from 3 independent experiments.

[2] = system: A-549 cells; test: Intracellular ROS measurement (H2DCFDA, flow cytometry)
From the text: The generation of intracellular reactive oxygen species (ROS) causes an imbalance of cellular redox homeostasis, followed by damage of cellular components and cell death. Therefore, compounds with the ability to produce high levels of ROS and/or inhibit antioxidant processes are often used in anticancer therapies. In the present study, the effect of PCH-1 on ROS generation in A-549 cells was investigated by flow cytometry. As an indicator of ROS generation, the fluorescent probe 2ʹ,7ʹ-dichlorodihydrofluorescein diacetate (H2DCFDA) was used, which undergoes oxidation by ROS to form a highly fluorescent compound 2ʹ,7ʹ-dichlorofluorescein (DCF). As shown in Supplementary Fig. S6 in Supplementary Information, compound PCH-1 induced a massive amount of ROS in A-549 cells in a time-dependent manner. […] Moreover, the induction of ROS was equally high for PCH-1 and the reference compound H2O2 in all the tested time points.
For determination the ROS generation, cells were treated with IC90 of PCH-1, H2O2, or 1% DMSO for 3, 6, and 24 h. Next, a 1 µM CM-H2DCFDA (#C6827; Thermo-Fisher) probe was added to the cells in each plate 30 min before the end of the drug treatment. After incubation cells were collected by trypsinization, stained with 7-Aminoactinomycin D (7-AAD, Sigma-Aldrich), and measured. The analysis was performed with Guava EasyCyte 8 cell sorter (Merck Millipore) and FlowJo software v10. Each experiment was repeated independently three times.

[3] = system: HEK293 cells; test: MTT cell viability assay, HEK293; conditions: Homo sapiens, HEK293, 72 h, nonmalignant cells, read-out: IC50 ± SD, growth inhibition, HEK293
Procedure: as §1, §2

[4] = system: A-549 cells; test: MTT cell viability assay, A-549; conditions: for IC50: Homo sapiens, A549
Procedure: as §1, with “Cells were exposed to a range of PCH concentrations (0.5–100 µM) for 72 h and analyzed by 3-(4,5-dimethylthiazol-2-yl)-2,5-diphenyl-2H-tetrazolium bromide (MTT) assay.” left out
as §2, with “After 72 h of incubation at 37 °C in 5% CO2, the MTT solution (0.4 mg/ml) was added to each well.” left out

[5] = system: caspase-3/7 in H460 cells; test: Caspase-3/7 activation by flow cytometry, H460; conditions: IC90
Procedure: (§3) To explain the type of cell death that cancer cells undergo after treatment with PCH-1, the ability of the compound to activate caspases 3–7 was determined by flow cytometry. […] The most pronounced activation of caspase 3 occurred equally in A-549 and H226 cell lines after 48 h of treatment and was sevenfold greater than that in the vehicle.
(§4) Cells were seeded onto tissue culture plates and allowed to attach for 24 h. Next, the cells were treated with PCH-1 or Etoposide at IC90 concentration for 6, 24, and 48 h. After incubation, the cells were harvested by trypsinization, rinsed twice with PBS, and stained with Annexin V Alexa Fluor™ 488 conjugate (Thermo Fisher, #A13201) for apoptosis assay and with CellEvent™ Caspase-3/7 Green Flow Cytometry Assay Kit (Thermo Fisher, #C10427) for caspase-3/7 activation according to the manufacturer’s protocols. The analysis was performed with Guava EasyCyte 8 cell sorter (Merck Millipore) and FlowJo software v10. Each experiment was repeated independently three times.

[6] = system: caspase-3/7 in A-549 cells; test: Caspase-3/7 activation by flow cytometry, A-549; conditions: IC90
Procedure: as §3, §4

- IC50 ([1]; Homo sapiens, NCI-H460, 72 h, MTT, read-out: IC50 ± SD, growth inhibition, H460): 8.4 ± 1.1 µM
- IC50 ([4]; 72 h, MTT, read-out: IC50 ± SD, growth inhibition, A-549): 4.32 ± 0.28 µM
- IC50 ([4]; A-549, 24 h, read-out: IC50 after 24 h of treatment): 41.3 ± 0.75 µM
- IC50 ([4]; A-549, 48 h, read-out: IC50 after 48 h of treatment): 25.6 ± 0.97 µM
SMILES: COc1ccc(C2CC(c3cc4c(cc3OC)OCO4)=NN2C(C)=O)cc1 (stereo not drawn) [PCH-1, 1-[3-(6-methoxy-2H-1,3-benzodioxol-5-yl)-5-(4-methoxyphenyl)-4,5-dihydro-1H-pyrazol-1-yl]ethan-1-one]
- superior activity to the reference compound Cisplatin, H460 ([1]; 72 h IC50 ratio): ~2.6 fold
- increase of ROS towards vehicle control ([2]; A-549, IC90, 3 h): 15%
- increase of ROS towards vehicle control ([2]; A-549, IC90, 6 h): 56.9%
- increase of ROS towards vehicle control ([2]; A-549, IC90, 24 h): 68.1%
- IC50 [3]: 20.9 ± 2.34 µM
- superior activity to the reference compound Cisplatin, A-549 ([4]; 72 h IC50 ratio): approximately 6.7 fold
- caspase-3/7 activation, increase compared to control, H460 ([5]; 6 h): 3.15 fold
- cells with activated caspase 3/7 vs control, H460 ([5]; later exposure): remaining approximately constant
- caspase-3/7 activation, increase compared to control, A-549 ([6]; 6 h): 2.6 fold
- activation of caspase 3 vs vehicle, A-549 ([6]; 48 h): sevenfold
- cells with activated caspase 3/7 vs control, A-549 ([6]; later exposure): greater than 5.8 times
